Laboratory results published in paper PMC6130797 (ACS Omega, 2018).
Where “and” joins values, the source holds several entries; their conditions need not be identical. Equal values may be shown once. Read-outs that look alike come from different tables or passages of the source.

What was measured:
[1] = target: T1, hH4R (Homo sapiens, UniProt Q9H3N8); test: Radioligand competition binding with [3H]histamine, Sf9 cell membranes
[2] = target: hH1R (Homo sapiens, UniProt P35367); test: biochemical; assay type: binding
[3] = target: T2, gpH2R (Cavia porcellus, UniProt P47747); design: species or system guinea pig
Target sequence in this assay (P47747 whole entry): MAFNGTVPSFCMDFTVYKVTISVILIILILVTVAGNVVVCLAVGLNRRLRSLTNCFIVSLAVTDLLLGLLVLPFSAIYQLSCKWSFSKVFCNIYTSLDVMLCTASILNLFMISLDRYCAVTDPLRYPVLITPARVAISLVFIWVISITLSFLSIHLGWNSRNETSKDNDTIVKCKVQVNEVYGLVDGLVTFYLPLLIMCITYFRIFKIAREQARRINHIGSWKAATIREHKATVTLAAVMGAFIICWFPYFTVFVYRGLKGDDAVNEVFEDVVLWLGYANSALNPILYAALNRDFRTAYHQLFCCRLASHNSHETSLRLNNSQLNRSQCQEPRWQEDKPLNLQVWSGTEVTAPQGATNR

[4] = target: T3, hH2R (Homo sapiens, UniProt P25021); assay type: binding
[5] = target: hH3R (Homo sapiens, UniProt Q9Y5N1); test: Radioligand competition binding with [3H]Nα-methylhistamine, Sf9 cell membranes
[6] = target: gpH1R (Cavia porcellus, UniProt P31389); test: Histamine H1 receptor assay on isolated guinea pig ileum
[7] = target: T2, gpH2R; test: biochemical; assay type: biochemical, guinea pig; conditions: maximal response relative to histamine (Emax = 1.00)
Target sequence in this assay (P47747 whole entry): as above
Target sequence in this assay (P63092 1-380 isoform P63092-2 partner): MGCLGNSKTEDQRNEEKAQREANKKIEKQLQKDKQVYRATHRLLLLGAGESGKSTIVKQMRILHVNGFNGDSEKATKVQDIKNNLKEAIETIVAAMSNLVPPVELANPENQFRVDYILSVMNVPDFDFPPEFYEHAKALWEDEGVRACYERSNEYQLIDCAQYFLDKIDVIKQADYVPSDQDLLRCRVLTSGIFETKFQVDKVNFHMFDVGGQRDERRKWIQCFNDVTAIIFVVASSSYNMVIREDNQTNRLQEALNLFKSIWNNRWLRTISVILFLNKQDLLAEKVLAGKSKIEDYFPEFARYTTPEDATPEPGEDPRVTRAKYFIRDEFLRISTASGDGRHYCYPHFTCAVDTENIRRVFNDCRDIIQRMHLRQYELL

[8] = target: rH2R (Rattus norvegicus, UniProt P25102); test: [35S]GTPγS binding assay, Sf9 cell membranes; assay type: biochemical
[9] = target: T1, hH4R; test: [35S]GTPγS binding assay, Sf9 cell membranes; assay type: biochemical; conditions: maximal response relative to histamine (Emax = 1.00)
[10] = target: T3, hH2R; test: [35S]GTPγS binding assay, Sf9 cell membranes; assay type: biochemical; conditions: maximal response relative to histamine (Emax = 1.00)
[11] = hH2R pKi, [3H]tiotidine (Kd […], c = 10 nM), mean ± SEM
[12] = hH3R pKi, [3H]Nα-methylhistamine (Kd 8.6 nM, c = 3 nM), mean ± SEM
[13] = hH1R pKi, [3H]mepyramine (Kd 4.5 nM, c = 5 nM), mean ± SEM
[14] = guinea pig right atrium, relative to maximal increase in heart rate induced by histamine (Emax = 1.00)

Sequence of gpH1R (P31389 whole entry): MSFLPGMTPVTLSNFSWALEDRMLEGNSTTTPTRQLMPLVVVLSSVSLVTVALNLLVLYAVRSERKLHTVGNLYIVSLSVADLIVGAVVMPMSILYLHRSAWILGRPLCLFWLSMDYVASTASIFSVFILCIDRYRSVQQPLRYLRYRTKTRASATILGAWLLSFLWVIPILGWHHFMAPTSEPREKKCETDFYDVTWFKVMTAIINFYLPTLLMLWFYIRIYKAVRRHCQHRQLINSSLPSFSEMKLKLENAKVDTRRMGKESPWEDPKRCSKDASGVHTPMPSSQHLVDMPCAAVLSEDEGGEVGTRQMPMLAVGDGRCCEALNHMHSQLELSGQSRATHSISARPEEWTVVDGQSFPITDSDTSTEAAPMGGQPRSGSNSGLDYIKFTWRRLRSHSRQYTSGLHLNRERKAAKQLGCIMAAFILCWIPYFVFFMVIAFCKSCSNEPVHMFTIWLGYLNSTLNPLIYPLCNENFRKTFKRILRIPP
T1 sequence (Q9H3N8 whole entry): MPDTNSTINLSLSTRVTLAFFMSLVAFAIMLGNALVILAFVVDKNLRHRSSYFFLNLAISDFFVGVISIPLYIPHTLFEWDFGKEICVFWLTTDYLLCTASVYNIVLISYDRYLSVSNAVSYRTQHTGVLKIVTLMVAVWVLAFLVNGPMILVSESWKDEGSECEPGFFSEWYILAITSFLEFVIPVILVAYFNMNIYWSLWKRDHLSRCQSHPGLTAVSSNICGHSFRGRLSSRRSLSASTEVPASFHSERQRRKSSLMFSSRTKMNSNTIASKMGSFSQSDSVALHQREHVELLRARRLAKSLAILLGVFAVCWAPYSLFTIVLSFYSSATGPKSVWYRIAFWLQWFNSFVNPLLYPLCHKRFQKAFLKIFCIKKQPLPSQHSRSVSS
Sequence of hH1R (P35367 whole entry): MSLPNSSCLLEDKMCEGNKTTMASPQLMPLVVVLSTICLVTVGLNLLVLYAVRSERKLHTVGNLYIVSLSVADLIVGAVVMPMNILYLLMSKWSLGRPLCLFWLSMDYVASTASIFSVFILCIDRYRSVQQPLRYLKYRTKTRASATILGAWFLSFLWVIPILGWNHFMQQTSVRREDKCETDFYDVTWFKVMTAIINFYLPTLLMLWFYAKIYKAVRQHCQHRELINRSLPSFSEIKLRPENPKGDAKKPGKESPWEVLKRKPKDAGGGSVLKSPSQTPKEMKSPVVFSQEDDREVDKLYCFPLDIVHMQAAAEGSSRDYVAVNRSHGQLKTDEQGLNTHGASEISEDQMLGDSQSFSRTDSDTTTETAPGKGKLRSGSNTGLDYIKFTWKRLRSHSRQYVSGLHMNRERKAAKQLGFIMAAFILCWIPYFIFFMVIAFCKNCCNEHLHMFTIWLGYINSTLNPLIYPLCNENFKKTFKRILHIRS
Sequence of hH3R (Q9Y5N1 whole entry): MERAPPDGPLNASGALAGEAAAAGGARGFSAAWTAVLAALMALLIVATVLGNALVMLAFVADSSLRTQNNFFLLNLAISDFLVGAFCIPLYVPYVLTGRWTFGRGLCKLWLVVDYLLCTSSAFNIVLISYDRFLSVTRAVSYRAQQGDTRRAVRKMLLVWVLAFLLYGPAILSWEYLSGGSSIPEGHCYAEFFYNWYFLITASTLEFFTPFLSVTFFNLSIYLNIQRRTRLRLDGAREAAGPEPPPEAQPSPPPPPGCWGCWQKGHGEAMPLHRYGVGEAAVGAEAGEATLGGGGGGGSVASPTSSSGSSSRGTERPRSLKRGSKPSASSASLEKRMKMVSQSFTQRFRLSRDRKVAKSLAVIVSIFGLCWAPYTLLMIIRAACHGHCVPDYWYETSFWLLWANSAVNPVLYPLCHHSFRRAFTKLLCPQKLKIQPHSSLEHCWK
T3 sequence (P25021 whole entry): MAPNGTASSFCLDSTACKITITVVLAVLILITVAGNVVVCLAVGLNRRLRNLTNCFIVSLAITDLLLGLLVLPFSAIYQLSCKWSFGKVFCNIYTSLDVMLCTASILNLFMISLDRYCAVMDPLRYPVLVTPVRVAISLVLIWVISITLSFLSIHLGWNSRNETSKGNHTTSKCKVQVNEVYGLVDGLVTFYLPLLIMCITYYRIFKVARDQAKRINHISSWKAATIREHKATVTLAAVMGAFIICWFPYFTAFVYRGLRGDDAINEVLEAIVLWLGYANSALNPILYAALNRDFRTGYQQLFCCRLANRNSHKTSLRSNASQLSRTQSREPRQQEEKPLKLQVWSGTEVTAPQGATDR
T3 sequence (P63092 1-380 isoform P63092-2 partner): as the sequence (P63092 1-380 isoform P63092-2 partner) above
Sequence of rH2R (P25102 whole entry): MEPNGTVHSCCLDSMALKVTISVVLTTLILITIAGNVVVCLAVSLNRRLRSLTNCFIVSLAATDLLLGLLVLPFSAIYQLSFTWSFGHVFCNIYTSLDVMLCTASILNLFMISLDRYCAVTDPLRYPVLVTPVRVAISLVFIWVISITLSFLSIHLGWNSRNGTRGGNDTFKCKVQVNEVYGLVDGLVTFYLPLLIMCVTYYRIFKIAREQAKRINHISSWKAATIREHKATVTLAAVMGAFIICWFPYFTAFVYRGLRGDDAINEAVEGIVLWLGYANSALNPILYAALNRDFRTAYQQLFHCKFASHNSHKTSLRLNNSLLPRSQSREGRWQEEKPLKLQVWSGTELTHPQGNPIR
Sequence of rH2R (P63092 1-380 isoform P63092-2 partner): as the sequence (P63092 1-380 isoform P63092-2 partner) above

**Q.** How did the Ki ([1]; hH4R pKi) turn out when `CC(C)(C)NC(=N)NCCCc1c[nH]cn1` [Compound 133] was run?
**A.** 219 nM

**Q.** And the Ki ([2]; hH1R pKi)?
**A.** > 100000 nM

**Q.** What about the EC50 [3] of the same molecule?
**A.** 15100 nM

**Q.** What about the “gpH2R Emax” value [3] of the same molecule?
**A.** 0.92 ± 0.03

**Q.** And the Ki [4, 11]?
**A.** 2510 nM

**Q.** And the Ki [5, 12]?
**A.** 372 nM

**Q.** How did the Ki ([1]; hH4R pKi) turn out when `CCCCNC(=N)NCCCc1c[nH]cn1` [Compound 131] was run?
**A.** 9.12 nM

**Q.** What about the Kb [6] of the same molecule?
**A.** 4070 nM

**Q.** And the Ki ([2]; hH1R pKi)?
**A.** > 10000 nM

**Q.** What about the EC50 [3] of the same molecule?
**A.** 832 nM

**Q.** And the “gpH2R Emax” value [3]?
**A.** 0.86 ± 0.04

**Q.** And the Ki [4, 11]?
**A.** 776 nM

**Q.** What about the Ki [5, 12] of the same molecule?
**A.** 61.7 nM

**Q.** What does the source list for `CCCCCCCCCCCCNC(=N)NCCCc1c[nH]cn1` [Compound 138]?
**A.** Ki ([1]; hH4R pKi): 12.6 nM; Kb [6]: 195 nM; Ki ([2]; hH1R pKi): 2950 nM; EC50 [3]: 234 nM; gpH2R Emax [3]: 0.91 and 0.91 ± 0.03; Ki [4, 11]: 603 nM; Ki [5, 12]: 29.5 nM

**Q.** For `CNCCc1cnc[nH]1` [[^3H]N^α-methylhistamine, reference compound], which Kd ([5]; read-out: Kd of radioligand at hH3R, Sf9 membranes) is on record?
**A.** 8.6 nM

**Q.** For `CCCNC(=N)NCCCc1c[nH]cn1` [Compound 129, 1-[3-(1H-Imidazol-4-yl)propyl]-3-propylguanidine], which Ki ([1]; Ki hH4R, bound stated) is on record?
**A.** < 100 nM

**Q.** And the Ki ([2]; Ki hH1R, bound stated)?
**A.** > 1000 nM

**Q.** And the Ki [2, 13]?
**A.** > 31600 nM

**Q.** What about the “gpH2R Emax” value [3] of the same molecule?
**A.** 0.83 ± 0.03

**Q.** And the Ki ([4]; Ki hH2R, bound stated)?
**A.** > 1000 nM

**Q.** And the Ki [4, 11]?
**A.** 3020 nM

**Q.** And the Ki ([5]; Ki hH3R, bound stated)?
**A.** < 100 nM

**Q.** What does the source list for `N=C(NCCCCCCCCCCNC(=N)NCCCc1c[nH]cn1)NCCCc1c[nH]cn1` [Compound 56]?
**A.** Ki ([1]; hH4R pKi): 20.9 nM; Kb [6]: 229 nM; Ki ([2]; hH1R pKi): 1260 nM; EC50 [3]: 25.1 nM; gpH2R Emax [3]: 0.71 ± 0.04; Ki [4, 11]: 33.9 nM; Ki [5, 12]: 19.1 nM

**Q.** Which Ki ([1]; hH4R pKi) does the source give for `CC(C)NC(=N)NCCCc1c[nH]cn1` [Compound 130] here?
**A.** 38 nM

**Q.** And the Kb [6]?
**A.** 5370 nM

**Q.** And the Ki ([2]; hH1R pKi)?
**A.** > 10000 nM

**Q.** What about the EC50 [3] of the same molecule?
**A.** 1550 nM

**Q.** And the “gpH2R Emax” value [3]?
**A.** 0.87 ± 0.04

**Q.** And the Ki [4, 11]?
**A.** 4170 nM

**Q.** And the Ki [5, 12]?
**A.** 91.2 nM

**Q.** Which results are given for `CCCCCNC(=N)NCCCc1c[nH]cn1` [Compound 134]?
**A.** Ki ([1]; hH4R pKi): 6.76 nM; Kb [6]: 4470 nM; Ki ([2]; hH1R pKi): > 10000 nM; EC50 [3]: 363 nM; gpH2R Emax [3]: 0.90 ± 0.02; Ki [4, 11]: 933 nM; Ki [5, 12]: 91.2 nM

**Q.** Which results are given for `N=C(NCCCNC(=N)NCCCc1c[nH]cn1)NCCCc1c[nH]cn1` [Compound 53]?
**A.** Ki ([1]; hH4R pKi): 200 nM; Kb [6]: 631 nM; Ki ([2]; hH1R pKi): > 10000 nM; EC50 [3]: 49 nM; gpH2R Emax [3]: 0.96 and 0.96 ± 0.01; Ki [4, 11]: 174 nM; Ki [5, 12]: 112 nM

**Q.** How did the Ki ([1]; hH4R pKi) turn out when `c1nc(CCCNC2=NCCCN2)c[nH]1` [Compound 145, N-[3-(1H-imidazol-4-yl)propyl]-1,4,5,6-tetrahydropyrimidin-2-amine] was run?
**A.** 38 nM

**Q.** And the Kb [6]?
**A.** 5750 nM

**Q.** What about the Ki ([2]; hH1R pKi) of the same molecule?
**A.** > 10000 nM

**Q.** What about the EC50 [3] of the same molecule?
**A.** 1510 nM

**Q.** What about the “gpH2R Emax” value [3, 14] of the same molecule?
**A.** 1.00 ± 0.03

**Q.** And the Ki [4, 11]?
**A.** 3160 nM

**Q.** What about the Ki ([5]; hH3R pKi) of the same molecule?
**A.** 186 nM

**Q.** Which Ki ([1]; hH4R pKi) does the source give for `N=C(NCCCCCCNC(=N)NCCCc1c[nH]cn1)NCCCc1c[nH]cn1` [Compound 55] here?
**A.** 427 nM

**Q.** What about the Kb [6] of the same molecule?
**A.** 2040 nM

**Q.** What about the Ki ([2]; hH1R pKi) of the same molecule?
**A.** > 3160 nM

**Q.** What about the EC50 [3] of the same molecule?
**A.** 16.6 nM

**Q.** And the “gpH2R Emax” value [3]?
**A.** 0.90 ± 0.04

**Q.** What about the Ki [4, 11] of the same molecule?
**A.** 151 nM

**Q.** And the Ki [5, 12]?
**A.** 52.5 nM

**Q.** How did the Ki ([1]; hH4R pKi) turn out when `CCNC(=N)NCCCc1c[nH]cn1` [Compound 128] was run?
**A.** 13.5 nM

**Q.** What about the Kb [6] of the same molecule?
**A.** 8320 nM

**Q.** And the Ki [2, 13]?
**A.** > 31600 nM

**Q.** What about the EC50 [3] of the same molecule?
**A.** 7240 nM

**Q.** What about the “gpH2R Emax” value [3] of the same molecule?
**A.** 0.55 ± 0.07

**Q.** What about the Ki [4, 11] of the same molecule?
**A.** 4900 nM

**Q.** And the Ki [5, 12]?
**A.** 93.3 nM

**Q.** `CC(C)CNC(=N)NCCCc1c[nH]cn1` [Compound 132] was tested. Which Ki ([1]; hH4R pKi) did it give?
**A.** 17.8 nM

**Q.** What about the Kb [6] of the same molecule?
**A.** 10200 nM

**Q.** What about the Ki [2, 13] of the same molecule?
**A.** > 31600 nM

**Q.** And the EC50 [3]?
**A.** 1350 nM

**Q.** And the “gpH2R Emax” value [3]?
**A.** 0.86 ± 0.08

**Q.** What about the Ki [4, 11] of the same molecule?
**A.** 759 nM

**Q.** What about the Ki [5, 12] of the same molecule?
**A.** 66.1 nM

**Q.** What does the source list for `NCCc1c[nH]cn1` [Compound 1, histamine, reference compound]?
**A.** gpH2R Emax [7]: 1.00; gpH2R Emax [3, 14]: 1.00; EC50 [8]: 1070 nM; rH2R Emax ([8]; maximal response relative to histamine (Emax = 1.00)): 1.00; hH4R Emax [9]: 1.00; hH2R Emax [10]: 1.00
